# In patent publication US6387329B1, “Use of an array of polymeric sensors of varying thickness for detecting analytes in fluids” (California Institute of Technology, priority 1998, dated 2002):
# Test system: cytochrome P-450 aniline p-hydroxylation
# Experiment: inhibitory action of alcohols on cytochrome P-450 aniline p-hydroxylation (data of Cohen and Mannering)
# Type: biochemical
# Settings: versus the electronic nose QSAR and another QSAR on the cytochrome P-450 system
# Excerpt: To test the ability of the “electronic nose” to identify molecules of interest having a particular biological activity selected from a library of molecules of interest, a quantitative structure-activity relationship (QSAR) was used to predict the inhibitory action of a series of alcohols on cytochrome P-450 aniline p-hydroxylation.
# The values are expressed as PI50, where I50 is the concentration of the alcohol (in mM) at which the activity of the enzyme is 50% inhibited, and PI50 is the negative logarithm of I50. More positive numbers correspond to more strongly inhibiting alcohols.
compound,measurement,value
OCc1ccccc1 [benzyl alcohol],activity compared with QSAR prediction,higher activity than is predicted
